According to US7759377B2, “Acylaminothiazole derivatives and use thereof as beta-amyloid inhibitors” (Sanofi-Aventis, priority 2004, dated 2010):

Target: T1, gamma-secretase (Homo sapiens, UniProt P49768, M146L)
T1 construct: expressed in transfected cells; host or cells: CHO-K1, clone 30-12
Experiment: β-amyloid cellular test: inhibition of production of β-A4 peptide, ELISA of cellular supernatants
Assay type: cell-based
Settings: CHO-K1 line coexpressing CT100 of APP and PS1 M146L clone 30-12; 24-25 h incubation; secreted amyloid peptide by ELISA
Text: For the β-amyloid cellular test, the CHO—K1 line coexpressing the CT100 of APP and PS1 M146L clone 30-12 is used. The line targets the inhibition of gamma-secretase. Presenilin is linked to gamma-secretase activity (Wolfe M S, Haass C., The Role of presenilins in gamma-secretase activity, J. Biol. Chem. 2001, 276(8): 5413-6) and its coexpression with the amyloid protein or its N-terminal fragment causes an increase in secretion of the peptide A1-42 (β-A4), thereby generating a pharmacological tool which allows inhibition by the compounds of formula (I) of the production of the β-A4 peptide to be evaluated. 96-well culture plates are inoculated with 1×10^5 cells per well in 150 μl of incubation medium. The presence of a minimum percentage (1.3% final) of serum allows cellular adhesion to the plastic after 2-3 hours of incubation at 37° C., in the presence of 5% CO2. The products (15 μl) are tested at 10 μM DMSO 1% final and are incubated for 24-25 h at 37° C. in the presence of 5% CO2 and 100% humidity. After this 24-25 h incubation, the cellular supernatants (100 μl) are transferred to ELISA plates, treated with the capture antibody 6E10 (6E10, epitope: aa1-17, INTERCHIM/SENETEK 320/10), to determine the amount of amyloid peptides secreted by the cells in the presence of compounds according to the invention. A series of synthetic control peptide, “peptide 1-40”, at 5 and 10 ng/ml is treated in parallel. The ELISA plates are incubated overnight at 4° C.
The quantity of bound peptide is detected indirectly in the presence of a competitor which corresponds to the truncated peptide, peptide 1-28 coupled to biotin, which is then detected with streptavidin coupled to alkaline phosphatase. The substrate, p-nitrophenyl phosphate (pNPP FAST p-Nitrophenyl Phosphate, Sigma N2770), gives a yellow, soluble reaction product which can be read at 405 nm. The reaction is stopped with 0.1 M EDTA solution. For this purpose, following binding of the amyloid peptide in the ELISA plate, 50 μl of biotinylated peptide 1-28 are added to 100 μl of cellular supernatant and incubated for 30 minutes at ambient temperature. The ELISA plates are then washed 3 times. After drying by inversion on absorbent paper, 100 μl of streptavidin-alkaline phosphatase (Interchim/Jackson ImmunoResearch Laboratories 016-050-084) are added per well and incubated for 1 hour at ambient temperature. The plates are washed again and then the alkaline phosphatase substrate (pNPP 1 mg/ml) is added in an amount of 100 μl per well. After 30 minutes of incubation at ambient temperature the reaction is stopped by adding 100 μl per well of 0.1 M EDTA and reading is carried out at 405 nm.

SMILES | EC50 [µM]
CCC[C@H](NC(=O)[C@@H](O)C(C)(C)C)C(=O)Nc1nc(-c2nc(-c3ccccc3)no2)c(C(C)C)s1 [Compound 7] | 0.052
CCC[C@H](NC(=O)[C@@H](O)C(C)(C)C)C(=O)Nc1nc(-c2nc3ccccc3o2)c(C(C)C)s1 [Compound 34, 2-{2-(S)-[2-(S)-hydroxy(3,3-dimethyl)butyrylamino]pentanoyl}amino-5-(1-methylethyl)-4-(1,3-benzoxazol-2-yl)thiazole] | 0.042
CCCC(NC(=O)C(O)c1cc(F)cc(F)c1)C(=O)Nc1nc(C)c(-c2nc(C)no2)s1 (stereo not shown) [Compound 40] | 0.085
CCC[C@H](NC(=O)[C@@H](O)C(C)(C)C)C(=O)Nc1ncc(-c2nnnn2Cc2ccccc2)s1 [Compound 51, 2-{2-(S)-[2-(S)-hydroxy(3,3-dimethyl)butyrylamino]pentanoyl}amino-5-(1-benzyl-1H-tetrazol-5-yl)thiazole] | 0.094
